Measured values published in US7947726B2, “Non-steroidal ligands for the glucocorticoid receptor, and compositions thereof” (The Regents of the University of California, priority 2002, dated 2011).
“And” between values parts separate entries of the source, which are not always exact repeats. Identical values can stand only once. Like-named read-outs stand apart in the source and are kept apart here.

Assays:
Type in all cases: cell-based
[1] = molecular target: T1, GR (Homo sapiens, UniProt P04150); assay: GRE (TAT3-Luc) activation luciferase assay in CV-1 cells transfected with GR
T1 construct: expressed in transfected cells; host or cells: CV-1 cells, transient transfection (plasmid a gift of Keith Yamamoto, UCSF)
T1 sequence (P04150 1-777): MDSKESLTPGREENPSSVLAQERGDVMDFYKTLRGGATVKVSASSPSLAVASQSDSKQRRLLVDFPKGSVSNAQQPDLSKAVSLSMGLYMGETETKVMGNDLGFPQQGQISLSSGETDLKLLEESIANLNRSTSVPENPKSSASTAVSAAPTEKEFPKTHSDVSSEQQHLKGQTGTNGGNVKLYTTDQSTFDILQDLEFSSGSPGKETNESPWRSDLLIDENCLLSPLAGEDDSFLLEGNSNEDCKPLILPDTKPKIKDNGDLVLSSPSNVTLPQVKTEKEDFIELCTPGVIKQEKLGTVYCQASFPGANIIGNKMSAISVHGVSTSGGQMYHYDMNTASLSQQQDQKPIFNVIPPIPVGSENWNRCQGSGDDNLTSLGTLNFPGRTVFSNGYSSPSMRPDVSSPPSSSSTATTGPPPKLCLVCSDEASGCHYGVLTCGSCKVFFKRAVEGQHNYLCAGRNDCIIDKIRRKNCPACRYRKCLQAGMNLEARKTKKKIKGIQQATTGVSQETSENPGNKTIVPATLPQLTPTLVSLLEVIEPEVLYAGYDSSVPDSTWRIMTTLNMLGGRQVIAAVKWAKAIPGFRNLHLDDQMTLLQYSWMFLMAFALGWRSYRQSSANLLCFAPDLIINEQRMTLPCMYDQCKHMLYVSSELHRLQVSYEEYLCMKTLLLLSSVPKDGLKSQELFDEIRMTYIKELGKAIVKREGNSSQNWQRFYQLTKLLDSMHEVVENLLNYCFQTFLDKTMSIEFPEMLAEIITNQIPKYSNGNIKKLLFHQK
Experimental: Cells were plated into tissue culture treated, 96 well flat bottom plates (25,000 cells/well), and incubated for 12 h at 37° C. Cells were then transfected using the Lipofectamine PLUS transfection reagent (Gibco BRL). DNA-lipid complexes of 5 ng GR, 50 ng TAT3-Luc, 7.5 ng β-galactosidase, 1 μL-well PLUS reagent and 0.67 μL-well lipofectamine in 50 μL/well serum free media were added to cells and incubated for 4 h at 37° C. Complexes were removed and hormones diluted in 5% charcoal-stripped FBS were added to the cells, which were then incubated for 24 hours at 37° C. Media was removed and the cells were washed with 100 μL Ca^+2, Mg^+2 free phosphate buffered saline (PBS). Lysis was achieved by adding 50 μL of Passive Lysis Buffer (Promega Corp, Madison, Wis.) and shaking the plate for 15 min. 15 μL of this lysate was then used to assay β-galactosidase activity (β-galactosidase enzyme assay system, Promega Corp., recommended procedures followed). The Luciferase Assay System (Promega Corp.) was used to assay luciferase activity. 100 μL of luciferase assay reagent was added rapidly to the plate and luminescence was measured for 10 ms/well on an Analyst AD Detection System (LJL Biosystems, Sunnyvale, Calif.).

[2] = molecular target: T2, MR (Homo sapiens, UniProt P08235); assay: MR activation (max fold activation); conditions: Table 4
T2 sequence (P08235 1-984): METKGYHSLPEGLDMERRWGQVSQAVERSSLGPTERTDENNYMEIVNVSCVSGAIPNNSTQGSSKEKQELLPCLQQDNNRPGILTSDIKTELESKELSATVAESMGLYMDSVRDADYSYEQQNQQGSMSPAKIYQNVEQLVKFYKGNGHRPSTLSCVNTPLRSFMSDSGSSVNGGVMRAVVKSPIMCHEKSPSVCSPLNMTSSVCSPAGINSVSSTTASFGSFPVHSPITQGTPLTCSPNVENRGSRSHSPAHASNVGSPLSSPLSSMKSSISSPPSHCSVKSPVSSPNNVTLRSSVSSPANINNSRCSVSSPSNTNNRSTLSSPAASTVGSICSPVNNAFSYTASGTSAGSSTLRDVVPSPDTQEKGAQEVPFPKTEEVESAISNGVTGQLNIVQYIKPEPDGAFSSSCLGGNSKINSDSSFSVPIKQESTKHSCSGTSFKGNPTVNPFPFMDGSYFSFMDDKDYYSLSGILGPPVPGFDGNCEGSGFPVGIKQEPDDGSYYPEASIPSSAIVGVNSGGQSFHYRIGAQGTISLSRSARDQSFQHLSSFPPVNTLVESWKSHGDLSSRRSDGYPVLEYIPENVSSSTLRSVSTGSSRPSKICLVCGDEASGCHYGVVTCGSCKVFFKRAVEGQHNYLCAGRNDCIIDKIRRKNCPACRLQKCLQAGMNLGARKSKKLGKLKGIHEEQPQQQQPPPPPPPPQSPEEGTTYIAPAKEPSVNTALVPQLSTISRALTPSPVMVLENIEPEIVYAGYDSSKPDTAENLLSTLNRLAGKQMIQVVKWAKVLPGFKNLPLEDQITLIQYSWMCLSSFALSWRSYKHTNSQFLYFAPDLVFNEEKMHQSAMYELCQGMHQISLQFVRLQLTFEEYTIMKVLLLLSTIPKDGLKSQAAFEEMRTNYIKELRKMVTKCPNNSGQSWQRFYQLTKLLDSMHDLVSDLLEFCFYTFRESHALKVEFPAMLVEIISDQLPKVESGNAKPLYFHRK

[3] = system: Coll A; assay: Coll A repression; conditions: Table 5; for Emax: read-out: Repression Coll A % max repression; for EC50: read-out: Repression Coll A pot (EC50)
[4] = Table 4, read-out: GR pot (EC50)

SMILES | EC50 ([1]; Table 1, read-out: GR pot(EC50)) | GRE activation max fold activation ([1]; Table 4) | EC50 [1, 4] | MR max fold activation [2] | Emax [3] | EC50 [3]
Cc1cc(O)cc(C)c1C(O)C1CCCC2=Cc3c(cnn3-c3ccc(F)cc3)CC21C (stereo not shown) [Compound 227, 4-{[1-(4-Fluoro-phenyl)-4a-methyl-4,4a,5,6,7,8-hexahydro-1H-benzo[f]indazol-5-yl]-hydroxy-methyl}-3,5-dimethyl-phenol] | 0.125 µM | 95 ± 23 | 0.13 ± 0.043 µM | 3.2 ± 0.9 | 75% | 0.0069 µM
CC12Cc3cnn(-c4ccc(F)cc4)c3C=C1CCCC2C(O)c1cccc2[nH]ccc12 (stereo not shown) [Compound 237, [1-(4-Fluoro-phenyl)-4a-methyl-4,4a,5,6,7,8-hexahydro-1H-benzo[f]indazol-5-yl]-(1H-indol-4-yl)-methanol] |  | 92 ± 18 | 0.149 ± 0.091 µM | 5.0 ± 1.5 | 75% | 0.0081 µM
CC12Cc3cnn(-c4ccc(F)cc4)c3C=C1CCCC2C(O)c1ccsc1 (stereo not shown) [Compound 238, [1-(4-Fluoro-phenyl)-4a-methyl-4,4a-5,6,7,8-hexahydro-1H-benzo[f]indazol-5-yl]-thiophen-3-yl-methanol] |  | 86 ± 4 and 112 ± 75 | 0.251 µM and 0.23 µM | 6.2 ± 0.9 | 68% | 0.027 µM
